The text below walks through data of PubChem BioAssay (NCI).

In general, TGI refers to the concentration giving total growth inhibition. A higher TGI goes with less potent growth arrest. Usually GI50 stands for the concentration giving 50% growth inhibition.

“And” between values parts separate entries of the source, which are not always exact repeats. Identical values can stand only once.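 Values below derive from 48-hour exposures of cells grown in 96-well plates, with endpoints linearly interpolated between the two concentrations bracketing the appropriate inhibition level. Abbreviation: GI50, concentration required for 50% inhibition of growth. TGI denotes the concentration required for complete inhibition of growth.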

Holding throughout (experiment): DTP human tumour cell line panel, 48 h
Experiment [1] deals with K-562 leukemia.
For experiment [2], the system named is SF-539 CNS.
For experiment [3], the system named is SF-295 CNS.
For experiment [4], the system named is HOP-62 NSCLC.
In experiment [5] the test system is TK-10 renal.
Experiment [6] concerns CAKI-1 renal.
The test system of experiment [7] is CCRF-CEM leukemia.
For experiment [8], the system named is NCI-H460 lung.

Consider `Cc1cccc(N=Cc2ccc(N(CCC#N)S(=O)(=O)c3ccccc3)cc2C)c1`, for which the TGI in experiment [1], in experiment [2], in experiment [3], in experiment [4], in experiment [5] and in experiment [6] was over 100 µM each time. In experiment [7], this compound came in with a TGI of over 100 µM.

As for `O=S1(=O)c2cc(S(=O)(=O)n3ccnc3)ccc2NC2=NCCCN21`, the TGI in experiment [1] is over 100 µM; in experiment [2], 40.1 µM; in experiment [3], over 100 µM; in experiment [4], 63.6 µM; in experiment [5] it was over 100 µM; in experiment [6], over 100 µM. The compound also registered a TGI in experiment [7] of 73.3 µM.

For `COc1ccc(-c2oc3c(OC)c(OC)c(OC)c(O)c3c(=O)c2OC)cc1O`, the TGI in experiment [1] is 13.5 µM; in experiment [2], 0.101 µM; in experiment [3], 21.2 µM; in experiment [4] it was 0.877 µM and 4.75 µM; in experiment [5], 51 µM; in experiment [6], over 100 µM. The TGI in experiment [8] worked out at 0.138 µM; in experiment [7] it was 11.4 µM. In addition, the GI50 in experiment [4] is 0.0478 µM; in experiment [6], under 0.01 µM; in experiment [8] it was under 0.01 µM.

Regarding `Cc1ccc(/C=N/NS(=O)(=O)c2ccccc2)cc1C`, the concentration for total growth inhibition (TGI) in experiment [1], in experiment [2], in experiment [3], in experiment [4], in experiment [5] and in experiment [6] was over 100 µM throughout. Further, the TGI in experiment [8] and in experiment [7] was over 100 µM throughout.

`C[N+](C)(C)C1CC([N+](C)(C)C)C2c3ccccc3C21` (stereo unspecified): the TGI in experiment [1], in experiment [2], in experiment [3], in experiment [4], in experiment [5] and in experiment [6] was over 100 µM each time. The TGI in experiment [8] and in experiment [7] was over 100 µM each time.

In the case of `CN(C)CCN(C)C(=O)c1cccc2cccc(C(=O)O)c12`, the TGI in experiment [1], in experiment [2], in experiment [3], in experiment [4], in experiment [5] and in experiment [8] was over 100 µM throughout. Further, the TGI in experiment [7] was over 100 µM.

On to `C/C(=C\C(C[C@](C)(O)C(O)CCC#C[Si](C)(C)C)S(=O)(=O)c1ccccc1)CC/C=C/CO[Si](C)(C)C(C)(C)C` (stereo partly specified), for which the TGI in experiment [1] is 29 µM; in experiment [2], 37 µM; in experiment [3], 31.1 µM; in experiment [4], 39.2 µM; in experiment [5] it was 37.7 µM; in experiment [6], 33 µM. For the same compound, the values for the concentration for total growth inhibition (TGI) in experiment [8] and in experiment [7] were 27 µM and 28.9 µM, respectively.

With `[Co].[O-]c1cccnc1C=Nc1ccccc1.[OH3+]`, the GI50 in experiment [1] is 45.8 µM; in experiment [2], over 100 µM; in experiment [5], over 100 µM; in experiment [8], over 100 µM; in experiment [7] it was over 100 µM. In addition, the TGI in experiment [1], in experiment [2], in experiment [5], in experiment [8] and in experiment [7] was over 100 µM each time.

With `Cc1[nH]c2ccccc2c1C1=NO/C(=N\O)C(c2c(C)[nH]c3ccccc23)C1` (stereo unspecified), the TGI in experiment [1] was over 100 µM; in experiment [2], over 80.3 µM; in experiment [3] it was over 100 µM; in experiment [4], 64.6 µM; in experiment [5] it was over 100 µM; in experiment [6], over 100 µM. In addition, the TGI in experiment [8] was over 67.6 µM; in experiment [7] it was over 100 µM.

For the compound `CCC[CH2][Sn]1([CH2]CCC)[O]CC[S]1`, the 50% growth inhibitory concentration (GI50) in experiment [1] is 0.15 µM; in experiment [2], 0.736 µM; in experiment [3] it was 1.42 µM; in experiment [4], 2.09 µM; in experiment [5] it was 0.508 µM; in experiment [6], 0.221 µM. For the same compound, the GI50 in experiment [8] was 1.77 µM; in experiment [7], 0.177 µM. For the same compound, the TGI in experiment [1] was found to be 1.28 µM; in experiment [2] it was 2.03 µM; in experiment [3], 2.76 µM; in experiment [4], 3.59 µM; in experiment [5], 1.39 µM; in experiment [6], 1.51 µM. Further, the figures for the TGI in experiment [8] and in experiment [7] were 3.72 µM and 0.814 µM, respectively.

Consider `O=C(O)CCSC(=O)Nc1cccc2ccccc12`, for which the TGI in experiment [1], in experiment [2], in experiment [3], in experiment [4], in experiment [5] and in experiment [6] was over 100 µM each time. The TGI in experiment [8] and in experiment [7] was over 100 µM each time.

`CC(=O)OC1=C2CC[C@@H]3C(CC[C@@]4(C)C3CC[C@@H]4OC(C)=O)[C@@]2(C)CC(C#N)C1=O` (stereo partly specified): the TGI in experiment [1] was 88.1 µM; in experiment [2] it was over 100 µM; in experiment [3], over 100 µM; in experiment [4], over 100 µM; in experiment [5], over 100 µM; in experiment [8], 74.4 µM. In experiment [7], this compound yielded a TGI of 53.1 µM.

As to `CC(=O)NCc1c(C(N)=O)ncn1Cc1ccccc1`, the TGI in experiment [1], in experiment [2], in experiment [3], in experiment [4], in experiment [5] and in experiment [6] was over 100 µM in each case. The TGI in experiment [8] and in experiment [7] was over 100 µM in each case.

With `CS(=O)(=O)NNS(=O)(=O)c1ccc(F)cc1`, the TGI in experiment [1], in experiment [2], in experiment [3], in experiment [4], in experiment [5] and in experiment [6] was over 100 µM throughout. The TGI in experiment [8] and in experiment [7] was over 100 µM throughout.

`O=[N+]([O-])c1cc(I)cc(/C=N/NS(=O)(=O)c2ccc(Cl)cc2)c1O`: the TGI in experiment [1] was 57.1 µM; in experiment [2], 51.5 µM; in experiment [3], 60.6 µM; in experiment [4] it was 53.6 µM; in experiment [5] it was 74.4 µM; in experiment [6], 54.9 µM. Further, the TGI is 37.4 µM in experiment [8] and 58.5 µM in experiment [7].

For `COc1cc(/C=C2\NC(=O)C3Cc4c(OC)c(C)c(OC)c(OC)c4C2N3C)c(OC)c(C)c1OC` (stereo unspecified), the TGI in experiment [1], in experiment [2], in experiment [3], in experiment [4], in experiment [5] and in experiment [6] was over 100 µM each time. The compound further displayed a total growth inhibition concentration (TGI) in experiment [7] of over 100 µM.

With `O=c1c(C(c2ccc([N+](=O)[O-])cc2)c2c(O)c3ccccc3n(-c3ccccc3)c2=O)c(O)c2ccccc2n1-c1ccccc1`, the total growth inhibition concentration (TGI) was over 100 µM in experiment [1]; 28 µM in experiment [2]; 33.3 µM in experiment [3]; 37.4 µM in experiment [4]; over 100 µM in experiment [5]; over 100 µM in experiment [6]. For the same compound, the TGI in experiment [7] stood at 13.4 µM.

In the case of `CCc1cccc(C(C)CC)c1NC(=O)C(=O)Cc1nc2ccccc2o1` (stereo unspecified), the TGI in experiment [1], in experiment [2], in experiment [3], in experiment [4], in experiment [5] and in experiment [6] was over 50 µM each time. In addition, the TGI in experiment [8] and in experiment [7] was over 50 µM in each case.

Turning to `O=C(CC1(O)C(=O)Nc2ccccc21)c1ccc(Cl)cc1Cl` (stereo unspecified), the TGI in experiment [1], in experiment [2], in experiment [3], in experiment [5] and in experiment [6] was over 100 µM each time.

On to `CC1SC2=NC3=C(c4ccccc4C3=O)C(c3ccccc3Cl)N2C1=O` (stereo unspecified), for which the TGI in experiment [1], in experiment [2], in experiment [3], in experiment [4], in experiment [5] and in experiment [6] was over 100 µM each time. Besides, the TGI in experiment [8] and in experiment [7] was over 100 µM each time.

In the case of `CNS(=O)(=O)NNS(=O)(=O)c1ccc(F)cc1`, the TGI in experiment [1], in experiment [2], in experiment [3], in experiment [4], in experiment [6] and in experiment [8] was over 100 µM in each case. Further, the TGI in experiment [7] is over 100 µM.

Regarding `C[C@]12CCc3nonc3C1CC[C@@H]1C2CC[C@@]2(C)C1CC[C@@H]2O` (stereo partly specified), the TGI in experiment [1], in experiment [2], in experiment [3], in experiment [4], in experiment [5] and in experiment [6] was over 100 µM in each case. In addition, the TGI in experiment [8] and in experiment [7] was over 100 µM in each case.

In the case of `CO/C=C(\Br)c1ccc2c(c1)OCO2`, the TGI in experiment [1], in experiment [2], in experiment [3], in experiment [4], in experiment [5] and in experiment [6] was over 100 µM in each case. The compound further registered a TGI in experiment [7] of over 100 µM.

`COc1ccc(C[C@]23CCC(=O)N2CCc2cc(OC)c(O)cc23)cc1O`: the TGI in experiment [1], in experiment [2], in experiment [3], in experiment [4], in experiment [5] and in experiment [6] was over 100 µM throughout. For the same compound, the TGI in experiment [8] and in experiment [7] was over 100 µM each time.

For `N#CC(C(=O)CCC(=O)Nc1cccc(C(F)(F)F)c1)c1ccccc1` (stereo unspecified), the TGI in experiment [1], in experiment [2], in experiment [3], in experiment [4], in experiment [5] and in experiment [6] was over 100 µM throughout. In addition, the TGI in experiment [8] and in experiment [7] was over 100 µM throughout.

As for `CCOC(=O)CNC(=O)OCc1ccccc1`, the TGI in experiment [1], in experiment [2], in experiment [3], in experiment [4], in experiment [5] and in experiment [6] was over 100 µM in each case. In addition, the TGI in experiment [8] and in experiment [7] was over 100 µM in each case.

As for `C1C[OH+]CCNCC[OH+]CC[OH+]CCN1.N.[Cl-].[Pt+4]`, the GI50 in experiment [1] was 41.5 µM; in experiment [2], over 100 µM; in experiment [3] it was 49 µM; in experiment [4] it was over 100 µM; in experiment [5], 49.5 µM; in experiment [6] it was 29 µM. Further, the results for the GI50 in experiment [8] and in experiment [7] were 93 µM and 53.6 µM, respectively. Besides, the TGI in experiment [1], in experiment [2], in experiment [3], in experiment [4], in experiment [5] and in experiment [6] was over 100 µM throughout. In addition, the TGI in experiment [8] and in experiment [7] was over 100 µM in each case.

Consider `Cc1cc2c(=O)c(C)n[nH]c2c(C#N)c1C`, for which the TGI in experiment [2], in experiment [3], in experiment [4], in experiment [5], in experiment [8] and in experiment [7] was over 100 µM in each case.

In the case of `N#CC1(N2CCCC2)CCC2(CC1)OCCO2`, the TGI in experiment [1], in experiment [2], in experiment [3], in experiment [4], in experiment [5] and in experiment [6] was over 100 µM in each case. Besides, the TGI in experiment [8] and in experiment [7] was over 100 µM in each case.

As to `CCCCCCCC(=O)OCC1OC(n2cc(F)c(=O)[nH]c2=O)C(N)C(O)C1O` (stereo unspecified), the total growth inhibition concentration (TGI) in experiment [1], in experiment [2], in experiment [3], in experiment [4], in experiment [6] and in experiment [8] was over 100 µM throughout. In experiment [7], this compound showed a TGI of over 100 µM.

As to `COc1ccc([Se][Se]c2ccc(OC)cc2OC)c(OC)c1`, the TGI was 7.94 µM in experiment [1]; 3.16 µM in experiment [2]; 4.03 µM in experiment [3]; 16.3 µM in experiment [5]; 18.6 µM in experiment [6]; over 100 µM in experiment [8]. The TGI in experiment [7] amounted to 5.29 µM.

Turning to `COC(=O)/C(=N\NC(N)=O)C(C#N)c1ccccc1` (stereo unspecified), the TGI in experiment [1], in experiment [2], in experiment [3], in experiment [4], in experiment [5] and in experiment [8] was over 100 µM each time. In addition, in experiment [7], the TGI was over 100 µM.
